Reference: US5994320A, “Antisense oligonucleotides and methods for treating central nervous system tumors” (Regents of the University of Minnesota, priority 1997, dated 1999)

Key:
[1] = tested on: U87 glioblastoma cell line; experiment: 3H-thymidine assay of U87 cell proliferation; type: cell-based, human; settings: U87 cells, 5 nanomoles/500 microliters; for 3H-thymidine incorporation, mean ± SEM: 2 days; for % Control (proliferation): 2 days (48 hours)
Experimental: (§1) Antisense oligonucleotides were incubated with glioblastoma (T98, U87, U373) and medulloblastoma (DAOY) cell lines when they were approximately 60% confluent. Antisense oligonucleotides were added at 5 nanomoles/500 microliters and incubated for 2 days in phosphate buffered saline. Growth of cells lines was measured at 2 days using a standard ^3 H-thymidine assay. Coligan et al., Current Protocols in Immunology, Vol. 2, pg.

[2] = tested on: T98 glioblastoma cell line; experiment: 3H-thymidine assay of T98 cell proliferation; type: cell-based, human; settings: T98 cells, 5 nanomoles/500 microliters; for 3H-thymidine incorporation, mean ± SEM: 2 days; for % Control (proliferation): 2 days (48 hours)
Experimental: as §1

[3] = tested on: U373 glioblastoma cell line; experiment: 3H-thymidine assay of U373 cell proliferation; type: cell-based, human; settings: U373 cells, 5 nanomoles/500 microliters; for 3H-thymidine incorporation, mean ± SEM: 2 days; for % Control (proliferation): 2 days (48 hours)
Experimental: as §1

[4] = tested on: DAOY medulloblastoma cell line; experiment: 3H-thymidine assay of DAOY cell proliferation; type: cell-based, human; settings: DAOY cells, 5 nanomoles/500 microliters; for 3H-thymidine incorporation, mean ± SEM: 2 days; for % Control (proliferation): 2 days (48 hours)
Experimental: as §1

EGF receptor = EGF receptor expression by flow cytometry in T98 and U87 cells; type: cell-based, human; settings: 10 μM, 48 hours
Experimental: The effects of c-myb antisense on the expression of epidermal growth factor (EGF) receptors in T98 and U87 cells in vitro was examined using a flow cytometric approach to quantify fluorescently labeled receptors. T98 and U87 cell lines that were treated with 10 μM antisense oligonucleotides for 48 hours were harvested. About 10^5 10^6 (number of cells) were incubated with fluorescently labeled antibody to EGF receptor (available from Upstate Biotech, Inc.) for 24 hours. The cells were then analyzed using a Beckman FACS cell sorter.
Cells for receptor expression assays were harvested, washed twice in PBS and fixed in 70% ethanol of 2% paraformaldehyde. After washing, cells were incubated with appropriate concentrations of specific receptor antibodies for 2-12 hours. Antibody conjugated FITC was then added to the cell suspensions. Cells were washed well between steps and resuspended in Hanks balanced salt solution, 1% sodium azide, and 1% bovine serum albumin. FITC fluorescence was then assayed by flow cytometry counting 10,000 cells per sample. The amount of fluorescently labeled EGF receptor and PDGF receptor were determined by standard flow cytometry analysis.

U87 gliomas = experiment: Intraflank U87 tumors in nude mice, intratumoral injection; type: in vivo, athymic nude mice; settings: for Change in tumor size at day 21: 100 μM, 50 μl (5 nanomoles/injection) intratumorally every two days, days 13 to 21
Experimental: Solid U87 gliomas were established in the flanks of athymic nude mice aged 4-6 weeks. Each animal received 5×10^6 U87 cells in 200 μl of medium. The cells were injected subcutaneously into one flank through a 25-gauge needle attached to a tuberculin syringe.
Cells were initially grown in a monolayer at 37° C. in DMEM medium containing 10% fetal calf serum, 2 mM glutamine, 1000 IU/ml of penicillin, and 100 μg/ml of streptomycin. Cells were harvested from culture flasks using trypsin immediately before injection and were kept on ice until the time of injection. Before injection the number of viable cells were confirmed by trypan blue exclusion. Past experience has shown that approximately 90% of tumors will successfully grow in the flank after U87 cell inoculation.
Tumors were allowed to grow for 14 days. Tumor size was evaluated with Vernier calipers using the formula 1/2 length(width)^2 where the length was the longest dimension and the width was the diameter perpendicular to the length. AONcmyb(2-7) was then injected using a Hamilton syringe directly into the tumor at a concentration of 0, 1, 10, or 100 μM in 50 μl volumes on alternate days for 8 days (FIG. 1).
The effects of administering 100 μM concentrations of AONcmyb(2-7) and AONcmyb(182-188) with their corresponding nonsense oligonucleotides, NONcmyb(2-7) and NONcmyb(182-188) along with Hank's Balanced Salt Solution as controls was compared. From days 13 to 21 animals received 50 μl(5 nanomoles/injection) injections intratumorally of either antisense, nonsense, or HBSS every two days.

[5] = tested on: human U87 glioblastoma cells; experiment: Intracerebral infusion, survival of nude rats with intrastriatal U87 xenografts; type: in vivo; settings: 0.1 nmole/hour continuous infusion over 14 days; saline animals survived only 13 days
Experimental: The effects of infusing c-myb antisense to codons 2-7 on the survival of nude rats with intrastriatal xenografts of human U87 glioblastoma cells was examined. A dose of 0.1 nmole/hour was infused. This dose is equivalent to the delivery of 100 µM of c-myb antisense injected directly into intraflank U87 tumors in 50 Ul volumes on alternate days. Animals received continuous infusions of either c-myb antisense or saline by Alzet Osmotic Minipump (Alza, Palo Alto, Calif.) over a period of 14 days. The pump was implanted immediately above the site of the tumor.

[6] = Toxicity of intraventricular antisense administration (Whitesell et al.); type: in vivo, rats; settings: 0.1 nmole/hr versus toxic 3.0 nmole/hr
Experimental: In a study assessing the toxicity of intraventricular antisense administration (Whitesell et al., Proc. Natl. Acad. Sci., 90:4665-4669, 1993), it was determined that dosages of 1.5 nmoles/hr were well tolerated in rats while a dose of 3.0 nmole/hr was toxic. […] Therefore, it is believed that an increase in dose of the c-myb antisense can be administered that will improve survival without toxic side effects.

Row | Substance | 3H-thymidine incorporation, mean ± SEM [1] | % Control (proliferation) [1] [%] | 3H-thymidine incorporation, mean ± SEM [2] | % Control (proliferation) [2] [%] | 3H-thymidine incorporation, mean ± SEM [3] | % Control (proliferation) [3] [%] | 3H-thymidine incorporation, mean ± SEM [4] | % Control (proliferation) [4] [%] | EGF receptor binding, % of control levels (EGF receptor) | Change in tumor size at day 21 (U87 gliomas) | Suppression of tumor growth, comparison of concentrations (U87 gliomas; 100 μM versus 0, 1, 10 μM, 50 μl intratumoral on alternate days for 8 days) | Animals with increased survival times [5] [%] | Factor by which the dose used is below the toxic level for antisense in the brain [6] [times]
1 | 5'-TGTAGAATTCCAGTGGTTCTT-3' (antisense TGTAGAATTCCAGTGGTTCTT; chemistry not given here) [AONcmyb(182-188)] | 92,968 ± 37,259 dpm | 25 | 78,457 ± 3,224 dpm | 61 | 588,082 ± 25,836 dpm | 76 | 517,725 ± 105,450 dpm | 45 | 30%-35% | no significant change |  |  | 
2 | 5'-GTG CCG GGG TCT TCG GGC-3' (antisense GTGCCGGGGTCTTCGGGC; chemistry not given here) [AONcmyb(2-7), antisense to the initiator region of c-myb, codons 2-7] | 74,688 ± 10,145 dpm | 20 | 67,318 ± 6,183 dpm | 53 | 402,504 ± 49,647 dpm | 52 | 604,061 ± 59,989 dpm | 53 | 13%-30% | no significant change | most effective in suppressing tumor growth | 25 | 30
